According to US10087181B2, “Compound as WNT signaling inhibitor, composition, and use thereof” (CUREGENIX, INC., priority 2012, dated 2018):
pIC50: −log10 of the molar value.

System: WNT pathway
Assay: WNT pathway reporter gene assay (NIH3T3 TCF-Luc cells co-cultured with 293 WNT3a cells)
Type: cell-based
Details: Mus musculus, concentration reducing luminescence intensity by 50%, TCF luciferase, 16 hours co-culture
Experimental: NIH3T3 mouse fibroblast cells (American Type Culture Collection, Manassas, Va.) were transfected with a plasmid containing a luciferase gene driven by 5 copies of TCF elements. Stale cells selected with 1 μg/mL of Zeocin (Gibco/Invitrogen, Carlsbad, Calif.) are cultured in Dulbecco's modified Eagle's medium (Invitrogen, Carlsbad, Calif.) supplemented with 10% FBS (Invitrogen), 50 unit/mL penicillin and 50 μg/mL of streptomycin (Invitrogen) at 37° C. with 5% CO2 in air atmosphere.
After 16 hours, the firefly luciferase activities are measured with the Steady-Glo™ Luciferase Assay System (Promega). The cells were treated with different concentrations of compounds of this invention during the co-culture. […] To normalize for cell quantity and viability, CellTiter Glo assay is next performed in a duplicate plate.

Compound	pIC50
Cc1cc(-c2cc3ccnc(NCc4ccc(-c5ccnc(C)c5)c(C)c4)c3cn2)ccn1 [Compound 2, N-(3-methyl-4-(2-methylpyridin-4-yl)benzyl)-6-(2-methylpyridin-4-yl)-2,7-naphthyridin-1-amine]	> 8.52
Cc1cc(-c2ccc(CNc3nccc4cc(-c5cnccn5)ncc34)cc2)ccn1 [Compound 35]	> 8.52
Cc1cc(-c2ncc(CNc3nccc4cc(-c5cnccn5)ccc34)cc2C)ccn1 [Compound 70]	> 8.52

Second part, the molecule after the results:

pIC50	Compound
> 8.52	Cc1cc(-c2ccc(CNc3nccc4cc(-c5ccnc(C)c5)ncc34)cc2)ccn1 [Compound 1, N-(4-(2-methylpyridin-4-yl)benzyl)-6-(2-methylpyridin-4-yl)-2,7-naphthyridin-1-amine]
> 8.52	Cc1cc(-c2cc3ccnc(NCc4ccc(-c5ccnc(F)c5)c(F)c4)c3cn2)ccn1 [Compound 28]
